# Values of other authors in US12133844B2, “Methods of treating epithelioid cell tumors” (Abraxis BioScience, LLC, priority 2015, dated 2024).
# Like-named read-outs stand apart in the source and are kept apart here.
# Columns and labels:
# mTORC1 [1] = target: T1, mTORC1 (Homo sapiens, UniProt P42345); parameters: endogenous in cells; host or cells: HUVEC
# [2] = in vivo
# HSA = HSA (Homo sapiens, UniProt P02768)
# mTORC1 [3] = target: T1, mTORC1; parameters: endogenous in cells; conditions: HEK293 cells, 0.2 μM-5 μM
# mTORC1 [4] = target: T1, mTORC1; parameters: endogenous in cells; host or cells: HUVEC; conditions: HUVEC cells, 10 nM-1 μM
# Sequence of HSA (P02768 25-609): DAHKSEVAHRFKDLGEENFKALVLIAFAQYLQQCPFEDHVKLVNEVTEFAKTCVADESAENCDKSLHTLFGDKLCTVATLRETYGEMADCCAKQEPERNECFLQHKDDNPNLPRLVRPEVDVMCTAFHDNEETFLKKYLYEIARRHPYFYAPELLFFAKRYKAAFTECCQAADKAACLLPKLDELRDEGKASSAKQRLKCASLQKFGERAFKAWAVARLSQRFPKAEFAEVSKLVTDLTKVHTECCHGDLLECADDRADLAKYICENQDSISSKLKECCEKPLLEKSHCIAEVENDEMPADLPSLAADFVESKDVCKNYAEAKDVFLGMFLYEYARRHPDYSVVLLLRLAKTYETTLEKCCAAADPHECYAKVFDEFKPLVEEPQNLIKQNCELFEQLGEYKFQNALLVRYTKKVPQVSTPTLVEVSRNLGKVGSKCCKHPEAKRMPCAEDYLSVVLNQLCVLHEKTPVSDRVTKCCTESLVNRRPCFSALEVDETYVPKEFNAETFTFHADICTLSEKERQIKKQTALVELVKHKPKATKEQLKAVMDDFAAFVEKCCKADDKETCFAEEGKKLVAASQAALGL
compound,measurement,setting,value
COc1ccc(-c2ccc3c(N4CCOCC4)nc(N4C[C@@H](C)O[C@@H](C)C4)nc3n2)cc1CO [KU-0063794],inhibition of phosphorylation of mTORC1 at Ser2448,mTORC1 [1],dose-dependent and time-dependent
COc1ccc(COc2cc3oc(=O)c4cc(C(C)O)ccc4c3cc2OC)cc1 (stereo not shown) [Palomid 529],affinity for ABCB1/ABCG2,ABCB1/ABCG2,lacks affinity
same,brain penetration,[2],good brain penetration
"CO[C@H]1C[C@@H]2CC[C@@H](C)[C@@](O)(O2)C(=O)C(=O)N2CCCC[C@H]2C(=O)O[C@H]([C@H](C)C[C@@H]2CC[C@@H](O)[C@H](OC)C2)CC(=O)[C@H](C)/C=C(\C)[C@@H](O)[C@@H](OC)C(=O)[C@H](C)C[C@H](C)/C=C/C=C/C=C/1C [Sirolimus, sirolimus]",binding to HSA,HSA,shown to bind HSA
CC(=O)O[C@@]12CO[C@@H]1C[C@H](O)[C@@]1(C)C(=O)[C@H](O)C3=C(C)[C@@H](OC(=O)[C@H](O)[C@@H](NC(=O)OC(C)(C)C)c4ccccc4)C[C@@](O)([C@@H](OC(=O)c4ccccc4)[C@H]21)C3(C)C [docetaxel],binding to human plasma proteins,human plasma proteins,shown to bind
WYE-354,inhibition of mTORC1,mTORC1 [3],inhibits mTORC1
same,inhibition of mTORC1,mTORC1 [4],inhibits mTORC1
